Data as given in the supplement of paper PMC11451515.

Assays:
Settings in all cases: 48 h
NOMO1 [1] = assay: AUC of viability dose-response curve (% viability x log10 dose units); higher = less sensitive
Method in brief: (§1)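 Viability of medium-adapted leukemia cells was measured by CellTiter-Glo One luminescence after 48 h at 37°C with library compounds in DMSO. Doses were 11 threefold steps from 47 μM to 0.79 nM, in 1536-well plates at 500 or 1000 cells/well. Signals were normalised per plate to DMSO and cell-free wells and fitted with a four-parameter log-logistic model on log10 dose. Area under the curve was integrated by trapezoidal rule, with curves exceeding full viability scaled and failed quality-control curves removed.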

P12-Ichikawa [2] = assay: as above
Method in brief: as §1

SEM cells [3] = assay: as above
Method in brief: as §1

SEM cells [4] = assay: cell viability relative to DMSO control; higher = less cytotoxic
Method in brief: (§2)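 Viability, reported as a per-plate percentage of DMSO wells with cell-free wells as background, came from CellTiter-Glo One luminescence. Reading took place after 48 h at 37°C. Before that, NOMO1 or SEM (500 cells/well) or P12-Ichikawa (1000 cells/well) leukemia cells, adapted for at least four passages in each medium, were seeded in 1536-well plates (5 μl) and pin-dosed with library compounds in DMSO, 47 μM to 0.79 nM over 11 threefold points.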

NOMO1 [5] = assay: as above
Method in brief: as §2

P12-Ichikawa [6] = assay: as above
Method in brief: as §2

N#Cc1ccc(COC[C@H]2O[C@@H](n3c(NCc4ccc(Cl)c(Cl)c4)nc4c(N)ncnc43)[C@H](O)[C@@H]2O)cc1
AUC of viability dose-response curve
Settings	NOMO1 [1]	P12-Ichikawa [2]	SEM cells [3]
HPLM + 10% dialyzed FBS	420	458	465
RPMI 5 mM glucose + 10% FBS	428	414	411
RPMI 5 mM glucose + 10% dialyzed FBS	420	415	431

CCn1cc(-c2ccnc3[nH]c(-c4cccc(CN(C)C)c4)cc23)c(-c2ccc(NC(=O)N(C)C)cc2)n1
SEM cells [4], HPLM + 10% dialyzed FBS
Settings	cell viability [%]
0.000781 µM	123
0.00234 µM	112
0.00702 µM	135
0.0211 µM	138
0.0632 µM	79.6
0.19 µM	52.5
0.569 µM	44.8
1.71 µM	48.9
5.12 µM	41.6
15.4 µM	19.4
46.1 µM	9.33

AUC of viability dose-response curve
Settings	NOMO1 [1]	P12-Ichikawa [2]	SEM cells [3]
HPLM + 10% dialyzed FBS	375	220	271
RPMI 5 mM glucose + 10% FBS	318	234	224
RPMI 5 mM glucose + 10% dialyzed FBS	323	252	233

CC(C)(CO)[C@@H](O)C(=O)NCCC(=O)O
AUC of viability dose-response curve
Settings	NOMO1 [1]	P12-Ichikawa [2]	SEM cells [3]
HPLM + 10% dialyzed FBS	440	466	469
RPMI 5 mM glucose + 10% FBS	470	471	471
RPMI 5 mM glucose + 10% dialyzed FBS	461	463	465

COc1ccc(-c2ccc3c(N4CCOCC4)nc(N4C[C@@H](C)O[C@@H](C)C4)nc3n2)cc1CO
AUC of viability dose-response curve
Settings	NOMO1 [1]	P12-Ichikawa [2]	SEM cells [3]
HPLM + 10% dialyzed FBS	304	336	343
RPMI 5 mM glucose + 10% FBS	372	301	342
RPMI 5 mM glucose + 10% dialyzed FBS	353	326	356

O=C(NCC1CCCCN1)c1cc(OCC(F)(F)F)ccc1OCC(F)(F)F (centres undefined)
cell viability [%], SEM cells [4]
Settings	HPLM + 10% dialyzed FBS	RPMI 5 mM glucose + 10% FBS
0.000781 µM	104	117
0.00234 µM	130	115
0.00702 µM	115	124
0.0211 µM	128	137
0.0632 µM	130	121
0.19 µM	151	127
0.569 µM	130	131
1.71 µM	140	128
5.12 µM	115	120
15.4 µM	118	121
46.1 µM	43.7	61.9

AUC of viability dose-response curve
Settings	NOMO1 [1]	P12-Ichikawa [2]	SEM cells [3]
HPLM + 10% dialyzed FBS	326	352	457
RPMI 5 mM glucose + 10% FBS	304	353	464
RPMI 5 mM glucose + 10% dialyzed FBS	317	375	468

CC(=O)O[C@@]1(CC[C@H]2[C@@H]3\C=C(Cl)/C4=C/C(=O)[C@@H]5C[C@@H]5[C@]4(C)[C@H]3CC[C@]12C)C(C)=O
cell viability [%]
Settings	NOMO1 [5]	SEM cells [4]
HPLM + 10% dialyzed FBS, 0.000781 µM	95.1	111
HPLM + 10% dialyzed FBS, 0.00234 µM	124	120
HPLM + 10% dialyzed FBS, 0.00702 µM	140	126
HPLM + 10% dialyzed FBS, 0.0211 µM	137	125
HPLM + 10% dialyzed FBS, 0.0632 µM	133	131
HPLM + 10% dialyzed FBS, 0.19 µM	135	130
HPLM + 10% dialyzed FBS, 0.569 µM	114	128
HPLM + 10% dialyzed FBS, 1.71 µM	66.4	131
HPLM + 10% dialyzed FBS, 5.12 µM	36	136
HPLM + 10% dialyzed FBS, 15.4 µM	38.5	134
HPLM + 10% dialyzed FBS, 46.1 µM	34.5	127
RPMI 5 mM glucose + 10% FBS, 0.000781 µM	–	115
RPMI 5 mM glucose + 10% FBS, 0.00234 µM	–	115
RPMI 5 mM glucose + 10% FBS, 0.00702 µM	–	126
RPMI 5 mM glucose + 10% FBS, 0.0211 µM	–	119
RPMI 5 mM glucose + 10% FBS, 0.0632 µM	–	118
RPMI 5 mM glucose + 10% FBS, 0.19 µM	–	144
RPMI 5 mM glucose + 10% FBS, 0.569 µM	–	128
RPMI 5 mM glucose + 10% FBS, 1.71 µM	–	116
RPMI 5 mM glucose + 10% FBS, 5.12 µM	–	120
RPMI 5 mM glucose + 10% FBS, 15.4 µM	–	135
RPMI 5 mM glucose + 10% FBS, 46.1 µM	–	135

AUC of viability dose-response curve
Settings	HPLM + 10% dialyzed FBS	RPMI 5 mM glucose + 10% FBS	RPMI 5 mM glucose + 10% dialyzed FBS
NOMO1 [1]	364	322	360
SEM cells [3]	464	450	442

O=C(Nc1cccc(C(F)(F)F)c1)Nc1cc([S+](=O)([O-])NC2CC2)ccc1-c1ccsc1
cell viability [%]
Settings	NOMO1 [5]	P12-Ichikawa [6]	SEM cells [4]
HPLM + 10% dialyzed FBS, 0.000781 µM	–	127	101
HPLM + 10% dialyzed FBS, 0.00234 µM	–	109	108
HPLM + 10% dialyzed FBS, 0.00702 µM	–	115	117
HPLM + 10% dialyzed FBS, 0.0211 µM	–	111	97.1
HPLM + 10% dialyzed FBS, 0.0632 µM	–	112	110
HPLM + 10% dialyzed FBS, 0.19 µM	–	114	118
HPLM + 10% dialyzed FBS, 0.569 µM	–	110	109
HPLM + 10% dialyzed FBS, 1.71 µM	–	110	102
HPLM + 10% dialyzed FBS, 5.12 µM	–	108	113
HPLM + 10% dialyzed FBS, 15.4 µM	–	104	106
HPLM + 10% dialyzed FBS, 46.1 µM	–	76.9	61.9
RPMI 5 mM glucose + 10% FBS, 0.000781 µM	111	120	–
RPMI 5 mM glucose + 10% FBS, 0.00234 µM	99.2	118	–
RPMI 5 mM glucose + 10% FBS, 0.00702 µM	102	119	–
RPMI 5 mM glucose + 10% FBS, 0.0211 µM	105	112	–
RPMI 5 mM glucose + 10% FBS, 0.0632 µM	104	123	–
RPMI 5 mM glucose + 10% FBS, 0.19 µM	97.7	118	–
RPMI 5 mM glucose + 10% FBS, 0.569 µM	105	116	–
RPMI 5 mM glucose + 10% FBS, 1.71 µM	109	119	–
RPMI 5 mM glucose + 10% FBS, 5.12 µM	105	112	–
RPMI 5 mM glucose + 10% FBS, 15.4 µM	96	110	–
RPMI 5 mM glucose + 10% FBS, 46.1 µM	16.5	69.8	–
RPMI 5 mM glucose + 10% dialyzed FBS, 0.000781 µM	–	121	101
RPMI 5 mM glucose + 10% dialyzed FBS, 0.00234 µM	–	116	107
RPMI 5 mM glucose + 10% dialyzed FBS, 0.00702 µM	–	107	118
RPMI 5 mM glucose + 10% dialyzed FBS, 0.0211 µM	–	121	105
RPMI 5 mM glucose + 10% dialyzed FBS, 0.0632 µM	–	117	107
RPMI 5 mM glucose + 10% dialyzed FBS, 0.19 µM	–	119	111
RPMI 5 mM glucose + 10% dialyzed FBS, 0.569 µM	–	105	104
RPMI 5 mM glucose + 10% dialyzed FBS, 1.71 µM	–	94.1	83.4
RPMI 5 mM glucose + 10% dialyzed FBS, 5.12 µM	–	107	94.9
RPMI 5 mM glucose + 10% dialyzed FBS, 15.4 µM	–	103	101
RPMI 5 mM glucose + 10% dialyzed FBS, 46.1 µM	–	50.1	10.3

AUC of viability dose-response curve
Settings	HPLM + 10% dialyzed FBS	RPMI 5 mM glucose + 10% FBS	RPMI 5 mM glucose + 10% dialyzed FBS
P12-Ichikawa [2]	466	465	460
SEM cells [3]	466	399	454

Cc1cc(Nc2cc(NC(=O)c3c(Cl)cccc3Cl)ccn2)nc(N)n1
SEM cells [4], HPLM + 10% dialyzed FBS
Settings	cell viability [%]
0.000781 µM	112
0.00234 µM	123
0.00702 µM	126
0.0211 µM	124
0.0632 µM	128
0.19 µM	128
0.569 µM	113
1.71 µM	61.3
5.12 µM	40.9
15.4 µM	37.9
46.1 µM	40.2

AUC of viability dose-response curve
Settings	NOMO1 [1]	P12-Ichikawa [2]	SEM cells [3]
HPLM + 10% dialyzed FBS	373	364	368
RPMI 5 mM glucose + 10% FBS	391	364	391
RPMI 5 mM glucose + 10% dialyzed FBS	359	346	341

COC(c1ccccc1)(c1ccccc1)[C@H](Oc1nc(C)cc(C)n1)C(=O)O
SEM cells [4], RPMI 5 mM glucose + 10% dialyzed FBS
Settings	cell viability [%]
0.000781 µM	115
0.00234 µM	134
0.00702 µM	122
0.0211 µM	139
0.0632 µM	177
0.19 µM	160
0.569 µM	167
1.71 µM	152
5.12 µM	140
15.4 µM	133
46.1 µM	85.1

AUC of viability dose-response curve
Settings	NOMO1 [1]	P12-Ichikawa [2]	SEM cells [3]
HPLM + 10% dialyzed FBS	444	464	462
RPMI 5 mM glucose + 10% FBS	452	465	466
RPMI 5 mM glucose + 10% dialyzed FBS	467	464	463
